From US12486267B2, “Imidazo[1,2-A]pyridine and [1,2,4]triazolo[1,5-A]pyridine derivatives as TLR9 inhibitors for the treatment of fibrosis” (BRISTOL-MYERS SQUIBB COMPANY, priority 2020, dated 2025)

What was measured:
Assay type in all cases: cell-based
human TLR8 = biological target: T1, human TLR8 (Homo sapiens, UniProt Q9NR97); assay: TLR8 inhibition reporter assay (HEK-Blue cells, SEAP reporter); conditions: HEK-Blue cells overexpressing human TLR8; stimulated with R848 15.9 μM; 22 hour incubation; SEAP readout
T1 sequence (Q9NR97 27-1041): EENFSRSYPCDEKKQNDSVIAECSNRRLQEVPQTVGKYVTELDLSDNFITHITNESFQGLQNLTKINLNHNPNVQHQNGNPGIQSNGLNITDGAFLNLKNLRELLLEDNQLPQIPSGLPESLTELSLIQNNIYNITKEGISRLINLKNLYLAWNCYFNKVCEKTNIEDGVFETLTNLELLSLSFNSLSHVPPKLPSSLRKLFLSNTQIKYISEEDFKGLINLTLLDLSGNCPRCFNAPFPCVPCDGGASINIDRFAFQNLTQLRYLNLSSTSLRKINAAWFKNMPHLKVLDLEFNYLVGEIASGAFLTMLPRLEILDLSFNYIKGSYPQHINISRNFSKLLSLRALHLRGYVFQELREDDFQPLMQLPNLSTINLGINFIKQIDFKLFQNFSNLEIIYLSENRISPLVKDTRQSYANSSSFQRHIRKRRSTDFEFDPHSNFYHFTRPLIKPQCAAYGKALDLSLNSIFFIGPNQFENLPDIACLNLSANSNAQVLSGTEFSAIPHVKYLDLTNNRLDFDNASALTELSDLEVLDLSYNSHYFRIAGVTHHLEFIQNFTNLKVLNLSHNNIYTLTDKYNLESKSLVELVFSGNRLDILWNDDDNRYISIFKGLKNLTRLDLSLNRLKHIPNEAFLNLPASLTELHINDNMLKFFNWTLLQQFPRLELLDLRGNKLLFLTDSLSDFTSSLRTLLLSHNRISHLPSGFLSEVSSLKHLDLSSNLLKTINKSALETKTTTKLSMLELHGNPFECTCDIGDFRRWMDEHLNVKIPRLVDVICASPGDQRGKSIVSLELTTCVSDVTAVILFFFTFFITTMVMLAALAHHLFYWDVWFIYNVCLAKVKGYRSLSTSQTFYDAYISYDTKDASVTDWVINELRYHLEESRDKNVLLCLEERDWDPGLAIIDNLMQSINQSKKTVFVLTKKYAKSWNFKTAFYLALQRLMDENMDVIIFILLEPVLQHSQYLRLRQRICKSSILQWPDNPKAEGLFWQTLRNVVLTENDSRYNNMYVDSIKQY
Method: (§1) TLR7/8/9 Inhibition Reporter Assays
(§2) HEK-Blue™-cells (Invivogen) overexpressing human TLR7, TLR8 or TLR9 receptors were used for screening inhibitors of these receptors using an inducible SEAP (secreted embryonic alkaline phosphatase) reporter gene under the control of the […] minimal promoter fused to five NF-κB and AP-1-binding sites. Briefly, cells are seeded into Greiner 384 well plates (15000 cells per well for TLR7, 20,000 for TLR8 and 25,000 for TLR9) and then treated with test compounds in DMSO to yield a final dose response concentration range of 0.05 nM-50 μM. After a 30 minute compound pre-treatment at room temperature, the cells are then stimulated with a TLR7 ligand (gardiquimod at a final concentration of 7.5 μM), TLR8 ligand (R848 at a final concentration of 15.9 μM) or TLR9 ligand (ODN2006 at a final concentration of 5 nM) to activate NF-κB and AP-1 which induce the production of SEAP. After a 22 hour incubation at 37° C., 5% CO2, SEAP levels are determined with the addition of HEK-Blue™ Detection reagent (Invivogen), a cell culture medium that allows for detection of SEAP, according to manufacturer's specifications. The percent inhibition is determined as the % reduction in the HEK-Blue signal present in wells treated with agonist plus DMSO alone compared to wells treated with a known inhibitor.

human TLR7 = biological target: T2, human TLR7 (Homo sapiens, UniProt Q9NYK1); assay: TLR7 inhibition reporter assay (HEK-Blue cells, SEAP reporter); conditions: HEK-Blue cells overexpressing human TLR7; stimulated with gardiquimod 7.5 μM; 22 hour incubation; SEAP readout
T2 sequence (Q9NYK1 27-1049): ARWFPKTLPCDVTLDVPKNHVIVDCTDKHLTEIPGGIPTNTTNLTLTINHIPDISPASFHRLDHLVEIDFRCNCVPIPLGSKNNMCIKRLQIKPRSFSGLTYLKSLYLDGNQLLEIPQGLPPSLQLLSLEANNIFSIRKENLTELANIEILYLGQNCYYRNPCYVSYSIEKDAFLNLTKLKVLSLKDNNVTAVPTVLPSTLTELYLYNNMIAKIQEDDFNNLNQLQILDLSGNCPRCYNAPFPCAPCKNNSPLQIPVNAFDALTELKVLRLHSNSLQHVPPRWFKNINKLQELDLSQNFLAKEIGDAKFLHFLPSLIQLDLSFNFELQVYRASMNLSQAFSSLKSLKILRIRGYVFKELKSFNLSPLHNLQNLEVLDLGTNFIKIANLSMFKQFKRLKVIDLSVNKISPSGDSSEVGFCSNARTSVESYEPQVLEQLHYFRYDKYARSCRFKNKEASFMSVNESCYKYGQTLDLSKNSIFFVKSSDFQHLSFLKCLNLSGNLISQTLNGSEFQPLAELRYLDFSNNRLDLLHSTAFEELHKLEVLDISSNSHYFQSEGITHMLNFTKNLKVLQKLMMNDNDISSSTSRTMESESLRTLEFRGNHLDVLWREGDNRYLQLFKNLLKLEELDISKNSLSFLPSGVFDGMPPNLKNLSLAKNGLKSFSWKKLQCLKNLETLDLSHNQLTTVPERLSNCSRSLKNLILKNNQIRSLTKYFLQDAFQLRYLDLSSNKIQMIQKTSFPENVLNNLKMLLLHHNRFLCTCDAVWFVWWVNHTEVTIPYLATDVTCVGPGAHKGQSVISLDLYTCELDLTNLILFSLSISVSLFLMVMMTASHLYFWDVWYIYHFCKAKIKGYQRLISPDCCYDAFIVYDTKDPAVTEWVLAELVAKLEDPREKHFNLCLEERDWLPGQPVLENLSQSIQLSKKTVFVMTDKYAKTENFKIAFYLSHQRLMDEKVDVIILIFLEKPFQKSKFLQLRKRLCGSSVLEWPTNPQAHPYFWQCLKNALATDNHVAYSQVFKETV
Method: as §1, §2

human TLR9 = biological target: T3, human TLR9 (Homo sapiens, UniProt Q9NR96); assay: TLR9 inhibition reporter assay (HEK-Blue cells, SEAP reporter); conditions: HEK-Blue cells overexpressing human TLR9; stimulated with ODN2006 5 nM; 22 hour incubation; SEAP readout
T3 sequence (Q9NR96 26-1032): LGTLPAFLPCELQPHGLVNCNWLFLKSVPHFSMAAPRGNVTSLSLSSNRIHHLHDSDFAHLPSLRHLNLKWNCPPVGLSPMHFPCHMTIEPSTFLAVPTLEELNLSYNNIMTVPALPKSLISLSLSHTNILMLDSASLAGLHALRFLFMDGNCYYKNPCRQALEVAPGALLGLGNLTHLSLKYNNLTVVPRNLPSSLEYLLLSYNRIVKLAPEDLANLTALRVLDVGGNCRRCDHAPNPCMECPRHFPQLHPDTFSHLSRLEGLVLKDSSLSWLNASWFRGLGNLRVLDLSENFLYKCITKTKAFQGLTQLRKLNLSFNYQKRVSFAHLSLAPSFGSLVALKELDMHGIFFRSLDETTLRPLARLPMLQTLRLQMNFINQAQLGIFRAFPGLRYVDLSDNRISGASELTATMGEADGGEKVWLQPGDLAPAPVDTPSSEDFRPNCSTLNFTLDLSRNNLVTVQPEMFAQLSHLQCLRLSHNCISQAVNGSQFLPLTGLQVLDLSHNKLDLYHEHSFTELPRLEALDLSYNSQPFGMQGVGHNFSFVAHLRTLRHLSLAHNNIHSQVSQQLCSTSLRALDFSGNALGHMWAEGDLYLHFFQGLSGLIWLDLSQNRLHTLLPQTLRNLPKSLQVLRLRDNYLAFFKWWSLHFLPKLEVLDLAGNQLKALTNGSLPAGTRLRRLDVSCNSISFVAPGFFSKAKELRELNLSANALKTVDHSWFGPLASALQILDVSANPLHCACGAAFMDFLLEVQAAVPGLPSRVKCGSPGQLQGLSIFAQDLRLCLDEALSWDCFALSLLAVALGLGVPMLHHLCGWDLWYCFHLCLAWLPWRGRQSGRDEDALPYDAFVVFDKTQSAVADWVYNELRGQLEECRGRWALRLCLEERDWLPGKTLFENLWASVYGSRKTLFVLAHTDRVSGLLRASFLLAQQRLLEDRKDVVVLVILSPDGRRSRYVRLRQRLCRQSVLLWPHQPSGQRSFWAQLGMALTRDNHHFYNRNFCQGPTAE
Method: as §1, §2

IC50 (human TLR8)	IC50 (human TLR7)	IC50 (human TLR9)	Structure (SMILES)
> 50000 nM	2700 nM	122 nM	COc1ccc(-c2cn3cc(C4CCN(C5CCN(CC(C)C)CC5)CC4)ccc3n2)cc1OC [Example 12, 2-(3,4-dimethoxyphenyl)-6-(1′-isobutyl-[1,4′-bipiperidin]-4-yl)imidazo[1,2-a]pyridine]
> 50000 nM	19200 nM	43 nM	CC(C)N1CCC(N2CCC(c3cc(F)c4nc(-c5ccc(S(C)(=O)=O)cc5)cn4c3)CC2)CC1 [Example 67, 8-fluoro-6-(1′-isopropyl-[1,4′-bipiperidin]-4-yl)-2-(4-(methylsulfonyl)phenyl) imidazo[1,2-a]pyridine]
> 50000 nM	3300 nM	48 nM	COc1ccc(-c2cn3cc(C4CCN(C5CC6CCC(C5)N6CC(C)C)CC4)cc(C)c3n2)cc1OC (single isomer, unassigned) [Example 18, 2-(3,4-dimethoxyphenyl)-6-(1-(8-isobutyl-8-azabicyclo[3.2.1]octan-3-yl)piperidin-4-yl)-8-methylimidazo[1,2-a]pyridine]
> 50000 nM	47000 nM	163 nM	COc1ccc(-c2cn3cc(C4CCN(C5CC6(C5)CN(C(C)C)C6)CC4)cc(C)c3n2)cc1OC [Example 13, 2-(3,4-dimethoxyphenyl)-6-(1-(2-isopropyl-2-azaspiro[3.3]heptan-6-yl)piperidin-4-yl)-8-methylimidazo[1,2-a]pyridine]
> 50000 nM	4200 nM	36 nM	COc1ccc(-c2cn3c(n2)CCC(C2CCN(C4CCN(CC5CC5)CC4)CC2)C3)cc1OC (single isomer, unassigned) [Example 57, 6-(1′-(cyclopropylmethyl)-[1,4′-bipiperidin]-4-yl)-2-(3,4-dimethoxyphenyl)-5,6,7,8-tetrahydroimidazo[1,2-a]pyridine]
> 50000 nM	1900 nM	6 nM	CS(=O)(=O)c1ccc(-c2cn3ccc(C4CCN(C5CCN(C6CCOCC6)CC5)CC4)c(F)c3n2)cc1 [Example 133, 8-fluoro-2-(4-(methylsulfonyl)phenyl)-7-(1′-(tetrahydro-2H-pyran-4-yl)-[1,4′-bipiperidin]-4-yl)imidazo[1,2-a]pyridine]
> 50000 nM	45000 nM	375 nM	COc1ccc(-c2cn3c(n2)CCC(C2CCN(C4CCN(C(=O)C5CC5)CC4)CC2)C3)cc1OC (single isomer, unassigned) [Example 43, cyclopropyl(4-(2-(3,4-dimethoxyphenyl)-5,6,7,8-tetrahydroimidazo[1,2-a]pyridin-6-yl)-[1,4′-bipiperidin]-1′-yl)methanone]
> 50000 nM	1200 nM	30 nM	COc1ccc(-c2cn3cc(C4CCN(C5CC6CCC(C5)N6C(C)C)CC4)cc(C)c3n2)cc1OC (single isomer, unassigned) [Example 22, 2-(3,4-dimethoxyphenyl)-6-(1-(8-isopropyl-8-azabicyclo[3.2.1]octan-3-yl)piperidin-4-yl)-8-methylimidazo[1,2-a]pyridine]
> 50000 nM	1800 nM	22 nM	COc1ccc(-c2cn3c(n2)CCC(C2CCN(C4CC5(C4)CN(C4CCC4)C5)CC2)C3)cc1OC (single isomer, unassigned) [Example 49, 6-(1-(2-cyclobutyl-2-azaspiro[3.3]heptan-6-yl)piperidin-4-yl)-2-(3,4-dimethoxyphenyl)-5,6,7,8-tetrahydroimidazo[1,2-a]pyridine]
> 50000 nM	2400 nM	58 nM	COc1ccc(-c2cn3cc(C4CCN(C5CC6CCC(C5)N6CC(C)C)CC4)cc(C)c3n2)cc1OC (single isomer, unassigned) [Example 19, 2-(3,4-dimethoxyphenyl)-6-(1-(8-isobutyl-8-azabicyclo[3.2.1]octan-3-yl)piperidin-4-yl)-8-methylimidazo[1,2-a]pyridine]

Structure (SMILES)	IC50 (human TLR8)	IC50 (human TLR7)	IC50 (human TLR9)
Cc1cc(C2CC3CCC(C2)N3C2CCN(C(C)C)CC2)cn2nc(-c3ccc(S(C)(=O)=O)cc3)nc12 (stereo not drawn) [Example 160, 6-(8-(1-isopropylpiperidin-4-yl)-8-azabicyclo[3.2.1]octan-3-yl)-8-methyl-2-(4-(methylsulfonyl)phenyl)-[1,2,4]triazolo[1,5-a]pyridine]	> 50000 nM	6900 nM	44 nM
